Test results as given in patent US20030181353A1, “Composition & use as analgesic, anti-inflammatory, wound healing agent, for treatment of heart conditions, assessment of heart function & tissue & cell protection & healing & reperfusion, mood disorders & symptoms & sequelae of menopause & for inducing unconsciousness, sleep & anesthesia” (priority 1998, published 2003).

Test system: Intracellular Adenosine
Type: in vivo, rat

Nc1nc(=O)c2c([nH]1)NCC(CNc1ccc(C(=O)N[C@@H](CCC(=O)O)C(=O)O)cc1)N2C=O (mixture of isomers) [Follinic Acid (F.A.), folinic acid]
Adenosine levels in the heart, lung and brain (rat, in vivo, po): dramatic increase in adenosine levels
Effect of co-administration of folinic acid on adenosine depletion (rats, co-administered with the depleting agent): completely abrogated adenosine depletion
Effect of folinic acid administered alone on adenosine levels (rats, folinic acid alone, all organs studied): increase in adenosine levels for all organs studied
